Results: patent US8211662B2, “Nitroreductase enzymatic substrates” (Biomerieux, priority 2007, dated 2012)

Test system: Bacillus subtilis NCTC 9372
Assay: Nitroreductase detection on Columbia agar, colonies read under UV
Type: cell-based
Parameters: key: − = no fluorescence detected; +/− = weak fluorescence; + = medium fluorescence; ++ = strong fluorescence
Details: 100 mg/l in Columbia agar, 24 h 37° C., UV 360-365 nm
Protocol: (§1) A mass of 40 mg of each substrate was dissolved in 4 ml of dimethylformamide (DMF). This solution was entirely taken up in 400 ml of Columbia agar autoclaved beforehand and kept molten at 50° C. The final concentration for each substrate was 100 mg/l.
(§2) Each of the media was distributed into Petri dishes 90 mm in diameter, in a proportion of 20 ml per dish.
(§3) 18 microorganism strains derived from collections and belonging to various species of bacteria and of yeasts were inoculated onto these media by semi-quantitative isolation of 10 μl of a suspension at 0.5 McFarland diluted to 1/20. The media were incubated for 24 hours at 37° C., then the colonies formed were examined visually under UV illumination at 360-365 nm.

Structure (SMILES) | Intensity of fluorescence, Bacillus subtilis NCTC 9372
O=[N+]([O-])c1ccccc1-c1nc2cc(Cl)ccc2o1 [Substrate 2] | −

Test system: Candida albicans ATCC 90028
Assay: as above
Type: cell-based
Parameters: key: − = no fluorescence detected; +/− = weak fluorescence; + = medium fluorescence; ++ = strong fluorescence
Details: 100 mg/l in Columbia agar, 24 h 37° C., UV 360-365 nm
Protocol: as §1, §2, §3

Structure (SMILES) | Intensity of fluorescence, Candida albicans ATCC 90028
O=[N+]([O-])c1ccccc1-c1nc2cc(Cl)ccc2o1 [Substrate 2] | −

Test system: Enterobacter cloacae NCTC 11936
Assay: as above
Type: cell-based
Parameters: key: − = no fluorescence detected; +/− = weak fluorescence; + = medium fluorescence; ++ = strong fluorescence
Details: 100 mg/l in Columbia agar, 24 h 37° C., UV 360-365 nm
Protocol: as §1, §2, §3

Structure (SMILES) | Intensity of fluorescence, Enterobacter cloacae NCTC 11936
O=[N+]([O-])c1ccccc1-c1nc2cc(Cl)ccc2o1 [Substrate 2] | +

Test system: Enterococcus faecalis NCTC 775
Assay: as above
Type: cell-based
Parameters: key: − = no fluorescence detected; +/− = weak fluorescence; + = medium fluorescence; ++ = strong fluorescence
Details: 100 mg/l in Columbia agar, 24 h 37° C., UV 360-365 nm
Protocol: as §1, §2, §3

Structure (SMILES) | Intensity of fluorescence, Enterococcus faecalis NCTC 775
O=[N+]([O-])c1ccccc1-c1nc2cc(Cl)ccc2o1 [Substrate 2] | −

Test system: Escherichia coli NCTC 10418
Assay: as above
Type: cell-based
Parameters: key: − = no fluorescence detected; +/− = weak fluorescence; + = medium fluorescence; ++ = strong fluorescence
Details: 100 mg/l in Columbia agar, 24 h 37° C., UV 360-365 nm
Protocol: as §1, §2, §3

Structure (SMILES) | Intensity of fluorescence, Escherichia coli NCTC 10418
O=[N+]([O-])c1ccccc1-c1nc2cc(Cl)ccc2o1 [Substrate 2] | +^1

Test system: Listeria monocytogenes NCTC 11994
Assay: as above
Type: cell-based
Parameters: key: − = no fluorescence detected; +/− = weak fluorescence; + = medium fluorescence; ++ = strong fluorescence
Details: 100 mg/l in Columbia agar, 24 h 37° C., UV 360-365 nm
Protocol: as §1, §2, §3

Structure (SMILES) | Intensity of fluorescence, Listeria monocytogenes NCTC 11994
O=[N+]([O-])c1ccccc1-c1nc2cc(Cl)ccc2o1 [Substrate 2] | −

Test system: Pseudomonas aeruginosa NCTC 10662
Assay: as above
Type: cell-based
Parameters: key: − = no fluorescence detected; +/− = weak fluorescence; + = medium fluorescence; ++ = strong fluorescence
Details: 100 mg/l in Columbia agar, 24 h 37° C., UV 360-365 nm
Protocol: as §1, §2, §3

Structure (SMILES) | Intensity of fluorescence, Pseudomonas aeruginosa NCTC 10662
O=[N+]([O-])c1ccccc1-c1nc2cc(Cl)ccc2o1 [Substrate 2] | −

Test system: Serratia marcescens NCTC 10211
Assay: as above
Type: cell-based
Parameters: key: − = no fluorescence detected; +/− = weak fluorescence; + = medium fluorescence; ++ = strong fluorescence
Details: 100 mg/l in Columbia agar, 24 h 37° C., UV 360-365 nm
Protocol: as §1, §2, §3

Structure (SMILES) | Intensity of fluorescence, Serratia marcescens NCTC 10211
O=[N+]([O-])c1ccccc1-c1nc2cc(Cl)ccc2o1 [Substrate 2] | +

Test system: Staphylococcus aureus NCTC 6571
Assay: as above
Type: cell-based
Parameters: key: − = no fluorescence detected; +/− = weak fluorescence; + = medium fluorescence; ++ = strong fluorescence
Details: 100 mg/l in Columbia agar, 24 h 37° C., UV 360-365 nm
Protocol: as §1, §2, §3

Structure (SMILES) | Intensity of fluorescence, Staphylococcus aureus NCTC 6571
O=[N+]([O-])c1ccccc1-c1nc2cc(Cl)ccc2o1 [Substrate 2] | +

Test system: Staphylococcus epidermidis NCTC 11047
Assay: as above
Type: cell-based
Parameters: key: − = no fluorescence detected; +/− = weak fluorescence; + = medium fluorescence; ++ = strong fluorescence
Details: 100 mg/l in Columbia agar, 24 h 37° C., UV 360-365 nm
Protocol: as §1, §2, §3

Structure (SMILES) | Intensity of fluorescence, Staphylococcus epidermidis NCTC 11047
O=[N+]([O-])c1ccccc1-c1nc2cc(Cl)ccc2o1 [Substrate 2] | −

Test system: Streptococcus pyogenes NCTC 8306
Assay: as above
Type: cell-based
Parameters: key: − = no fluorescence detected; +/− = weak fluorescence; + = medium fluorescence; ++ = strong fluorescence
Details: 100 mg/l in Columbia agar, 24 h 37° C., UV 360-365 nm
Protocol: as §1, §2, §3

Structure (SMILES) | Intensity of fluorescence, Streptococcus pyogenes NCTC 8306
O=[N+]([O-])c1ccccc1-c1nc2cc(Cl)ccc2o1 [Substrate 2] | −

Test system: Yersinia enterocolitica NCTC 11176
Assay: as above
Type: cell-based
Parameters: key: − = no fluorescence detected; +/− = weak fluorescence; + = medium fluorescence; ++ = strong fluorescence
Details: 100 mg/l in Columbia agar, 24 h 37° C., UV 360-365 nm
Protocol: as §1, §2, §3

Structure (SMILES) | Intensity of fluorescence, Yersinia enterocolitica NCTC 11176
O=[N+]([O-])c1ccccc1-c1nc2cc(Cl)ccc2o1 [Substrate 2] | +/−

Test system: Acinetobacter baumanii ATCC 19606
Assay: as above
Type: cell-based
Parameters: key to Intensity of fluorescence, Acinetobacter baumanii ATCC 19606 / Intensity of the fluorescence, Acinetobacter baumanii ATCC 19606: − = no fluorescence detected; +/− = weak fluorescence; + = medium fluorescence; ++ = strong fluorescence
Details: 100 mg/l in Columbia agar, 24 h 37° C., UV 360-365 nm
Protocol: as §1, §2, §3

Structure (SMILES) | Intensity of fluorescence, Acinetobacter baumanii ATCC 19606
O=[N+]([O-])c1ccccc1-c1nc2cc(Cl)ccc2o1 [Substrate 2] | +/−

Same assay, conditions: table 2

Structure (SMILES) | Distinguishing Pseudomonas aeruginosa from Acinetobacter baumanii
O=[N+]([O-])c1ccccc1-c1nc2cc(Cl)ccc2o1 [Substrate 2] | make it possible to distinguish Pseudomonas aeruginosa from Acinetobacter baumanii

Test system: Salmonella typhimurium NCTC 74
Assay: as above
Type: cell-based
Parameters: key to Intensity of fluorescence, Salmonella typhimurium NCTC 74 / F: fluorescence (intensity), Salmonella typhimurium NCTC 74 / Intensity of the fluorescence, Salmonella typhimurium NCTC 74: − = no fluorescence detected; +/− = weak fluorescence; + = medium fluorescence; ++ = strong fluorescence
Details: 100 mg/l in Columbia agar, 24 h 37° C., UV 360-365 nm
Protocol: as §1, §2, §3

Structure (SMILES) | Intensity of fluorescence, Salmonella typhimurium NCTC 74
O=[N+]([O-])c1ccccc1-c1nc2cc(Cl)ccc2o1 [Substrate 2] | −

Same assay, conditions: table 2

Structure (SMILES) | Salmonella typhimurium result with the substrate
O=[N+]([O-])c1ccccc1-c1nc2cc(Cl)ccc2o1 [Substrate 2] | negative

Test system: Morganella morganii 462403 (wild)
Assay: as above
Type: cell-based
Parameters: key to Intensity of fluorescence, Morganella morganii 462403 / F: fluorescence (intensity), Morganella morganii 462403 (wild) / Intensity of the fluorescence, Morganella morganii 462403 (wild): − = no fluorescence detected; +/− = weak fluorescence; + = medium fluorescence; ++ = strong fluorescence
Details: 100 mg/l in Columbia agar, 24 h 37° C., UV 360-365 nm
Protocol: as §1, §2, §3

Structure (SMILES) | Intensity of fluorescence, Morganella morganii 462403
O=[N+]([O-])c1ccccc1-c1nc2cc(Cl)ccc2o1 [Substrate 2] | +/−

Test system: MRSA NCTC 11939
Assay: as above
Type: cell-based, Staphylococcus aureus
Parameters: key: − = no fluorescence detected; +/− = weak fluorescence; + = medium fluorescence; ++ = strong fluorescence
Details: 100 mg/l in Columbia agar, 24 h 37° C., UV 360-365 nm
Protocol: as §1, §2, §3

Structure (SMILES) | Intensity of fluorescence, Staphylococcus aureus NCTC 11939
O=[N+]([O-])c1ccccc1-c1nc2cc(Cl)ccc2o1 [Substrate 2] | +

Test system: Candida glabrata NCPF 3943
Assay: as above
Type: cell-based
Parameters: key to Intensity of fluorescence, Candida glabrata NCPF3943 / F: fluorescence (intensity), Candida glabrata NCPF 3943 / Intensity of the fluorescence, Candida glabrata NCPF 3943: − = no fluorescence detected; +/− = weak fluorescence; + = medium fluorescence; ++ = strong fluorescence
Details: 100 mg/l in Columbia agar, 24 h 37° C., UV 360-365 nm
Protocol: as §1, §2, §3

Structure (SMILES) | Intensity of fluorescence, Candida glabrata NCPF3943
O=[N+]([O-])c1ccccc1-c1nc2cc(Cl)ccc2o1 [Substrate 2] | −

Test system: S. aureus (including MRSA) 10 strains
Assay: Detection of various strains of S. aureus in the presence of substrates
Type: cell-based, Staphylococcus aureus
Details: not given

Structure (SMILES) | Distinguishing or identifying Staphylococcus aureus strains, in particular MRSA, from most of the other Gram-positive bacterial strains
O=[N+]([O-])c1ccccc1-c1nc2cc(Cl)ccc2o1 [Substrate 2] | make it possible to distinguish or identify the Staphylococcus aureus strains

Same assay, conditions: 24 h; 10 strains

Structure (SMILES) | No. of strains detected, S. aureus (including MRSA)
O=[N+]([O-])c1ccccc1-c1nc2cc(Cl)ccc2o1 [Substrate 2] | 10

Same assay, conditions: 48 h; 10 strains

Structure (SMILES) | No. of strains detected, S. aureus (including MRSA)
O=[N+]([O-])c1ccccc1-c1nc2cc(Cl)ccc2o1 [Substrate 2] | 10

Test system: S. epidermidis 2 strains
Assay: as above
Type: cell-based
Details: 24 h
Protocol: as §1, §2
18 microorganism strains derived from collections and belonging to various species of bacteria and of yeasts were inoculated onto these media by semi-quantitative isolation of 10 μl of a suspension at 0.5 McFarland diluted to 1/20. […]

Structure (SMILES) | No. of strains detected, S. epidermidis
O=[N+]([O-])c1ccccc1-c1nc2cc(Cl)ccc2o1 [Substrate 2] | 0

Same assay, conditions: 48 h

Structure (SMILES) | No. of strains detected, S. epidermidis
O=[N+]([O-])c1ccccc1-c1nc2cc(Cl)ccc2o1 [Substrate 2] | 2

Test system: Staph spp 12 strains
Assay: as above
Type: cell-based
Details: 24 h

Structure (SMILES) | No. of strains detected, Staph spp
O=[N+]([O-])c1ccccc1-c1nc2cc(Cl)ccc2o1 [Substrate 2] | 12

Same assay, conditions: 48 h

Structure (SMILES) | No. of strains detected, Staph spp
O=[N+]([O-])c1ccccc1-c1nc2cc(Cl)ccc2o1 [Substrate 2] | 12

Test system: Enterococcus 6 strains
Assay: as above
Type: cell-based
Details: 24 h

Structure (SMILES) | No. of strains detected, Enterococcus
O=[N+]([O-])c1ccccc1-c1nc2cc(Cl)ccc2o1 [Substrate 2] | 0

Same assay, conditions: 48 h

Structure (SMILES) | No. of strains detected, Enterococcus
O=[N+]([O-])c1ccccc1-c1nc2cc(Cl)ccc2o1 [Substrate 2] | 1
